Calls of active or inactive are those of the source. The calls are words filed in the database; no cut-off is given here.
Columns and labels:
[1] = target: T1, Metabotropic glutamate receptor 5 (Homo sapiens, UniProt P41594); experiment: Positive allosteric modulation of mGlu5 receptor assessed as calcium mobilization at 30 uM relative to glutamate; format: functional
Target sequence in this assay (P41594 21-1212 limits assumed): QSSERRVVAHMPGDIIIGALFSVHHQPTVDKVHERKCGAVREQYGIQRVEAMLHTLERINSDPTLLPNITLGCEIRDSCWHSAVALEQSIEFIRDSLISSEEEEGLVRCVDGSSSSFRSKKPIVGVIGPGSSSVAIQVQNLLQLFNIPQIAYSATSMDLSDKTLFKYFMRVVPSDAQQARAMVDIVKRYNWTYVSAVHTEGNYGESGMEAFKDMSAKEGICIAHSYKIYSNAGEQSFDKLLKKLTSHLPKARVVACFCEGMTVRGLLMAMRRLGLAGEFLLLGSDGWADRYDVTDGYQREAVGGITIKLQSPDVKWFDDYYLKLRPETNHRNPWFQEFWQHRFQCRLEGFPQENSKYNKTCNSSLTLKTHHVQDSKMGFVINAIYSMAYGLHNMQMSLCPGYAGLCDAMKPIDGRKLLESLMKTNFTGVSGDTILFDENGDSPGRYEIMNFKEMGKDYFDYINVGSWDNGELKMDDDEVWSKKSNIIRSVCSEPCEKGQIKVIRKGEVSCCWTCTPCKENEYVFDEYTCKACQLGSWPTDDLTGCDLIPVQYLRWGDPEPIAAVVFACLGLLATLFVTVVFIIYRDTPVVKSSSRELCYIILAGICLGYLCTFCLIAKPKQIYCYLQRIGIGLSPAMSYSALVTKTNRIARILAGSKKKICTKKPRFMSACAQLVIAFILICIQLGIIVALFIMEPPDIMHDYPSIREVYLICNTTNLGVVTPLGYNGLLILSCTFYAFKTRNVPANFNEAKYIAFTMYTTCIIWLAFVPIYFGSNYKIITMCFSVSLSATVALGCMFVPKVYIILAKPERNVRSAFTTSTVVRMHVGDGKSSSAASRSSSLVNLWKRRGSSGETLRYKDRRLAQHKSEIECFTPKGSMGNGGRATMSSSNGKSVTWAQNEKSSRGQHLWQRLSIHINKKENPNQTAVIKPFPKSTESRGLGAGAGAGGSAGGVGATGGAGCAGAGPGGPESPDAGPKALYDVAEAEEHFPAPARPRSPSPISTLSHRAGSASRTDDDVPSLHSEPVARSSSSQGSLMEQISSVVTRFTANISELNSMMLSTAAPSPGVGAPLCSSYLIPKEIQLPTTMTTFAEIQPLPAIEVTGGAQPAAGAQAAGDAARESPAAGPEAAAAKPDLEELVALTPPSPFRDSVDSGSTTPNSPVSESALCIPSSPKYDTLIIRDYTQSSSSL

[2] = target: T1, Metabotropic glutamate receptor 5; experiment: Positive allosteric modulation of mGlu5 receptor assessed as calcium mobilization; format: functional
Target sequence in this assay (P41594 whole entry): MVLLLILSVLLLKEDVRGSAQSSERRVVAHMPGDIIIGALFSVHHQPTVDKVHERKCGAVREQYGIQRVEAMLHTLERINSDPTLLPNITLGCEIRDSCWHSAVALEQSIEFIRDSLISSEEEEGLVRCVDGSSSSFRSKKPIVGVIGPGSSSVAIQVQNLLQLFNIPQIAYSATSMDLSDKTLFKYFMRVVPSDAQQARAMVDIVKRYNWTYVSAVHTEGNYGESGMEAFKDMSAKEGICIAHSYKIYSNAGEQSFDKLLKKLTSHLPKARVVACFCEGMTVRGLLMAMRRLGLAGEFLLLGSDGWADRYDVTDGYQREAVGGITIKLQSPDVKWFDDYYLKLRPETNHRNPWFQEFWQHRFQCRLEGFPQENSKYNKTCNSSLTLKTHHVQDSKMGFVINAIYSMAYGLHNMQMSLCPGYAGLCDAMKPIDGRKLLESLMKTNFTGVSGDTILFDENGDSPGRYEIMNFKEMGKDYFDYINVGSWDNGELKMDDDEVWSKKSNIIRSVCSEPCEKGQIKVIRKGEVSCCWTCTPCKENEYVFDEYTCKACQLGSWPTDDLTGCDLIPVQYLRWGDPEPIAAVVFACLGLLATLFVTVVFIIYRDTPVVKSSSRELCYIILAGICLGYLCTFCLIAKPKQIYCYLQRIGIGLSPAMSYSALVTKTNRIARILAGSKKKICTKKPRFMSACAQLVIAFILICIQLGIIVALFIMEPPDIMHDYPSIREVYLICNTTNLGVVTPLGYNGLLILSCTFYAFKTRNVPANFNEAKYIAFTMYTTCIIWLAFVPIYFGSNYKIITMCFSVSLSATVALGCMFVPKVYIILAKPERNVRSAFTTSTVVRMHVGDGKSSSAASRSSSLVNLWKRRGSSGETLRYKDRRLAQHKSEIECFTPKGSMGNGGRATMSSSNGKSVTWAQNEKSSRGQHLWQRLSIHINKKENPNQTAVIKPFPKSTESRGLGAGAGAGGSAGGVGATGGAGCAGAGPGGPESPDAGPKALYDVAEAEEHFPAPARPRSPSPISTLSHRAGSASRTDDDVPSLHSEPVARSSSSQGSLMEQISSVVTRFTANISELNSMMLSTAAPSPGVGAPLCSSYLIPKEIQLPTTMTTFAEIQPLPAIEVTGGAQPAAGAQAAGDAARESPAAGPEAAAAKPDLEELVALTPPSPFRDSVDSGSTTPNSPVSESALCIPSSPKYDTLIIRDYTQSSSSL

Rattus norvegicus = experiment: Antipsychotic activity in rat assessed as reversal of amphetamine-induced hyperlocomotion at 30 mg/kg, ip; format: functional, organism-based; design: dose 30 mg/kg
[3] = target: T1, Metabotropic glutamate receptor 5; experiment: Antagonist activity against mGlu5 receptor assessed as inhibition of calcium mobilization
Target sequence in this assay (P41594 whole entry): as above

Compound | Activity [1] | EC50 [2] | Activity (Rattus norvegicus) | IC50 [3]
O=C1c2ccc(C#Cc3ccccc3)cc2CCN1CC1CCC1 | 91% | 270 nM |  | 
CC(C)CN1CCc2nc(C#Cc3cccc(F)c3)ccc2C1=O | 40% | 54 nM |  | 
Cc1cc(C#Cc2ccc3c(c2)CCNC3=O)ccc1F | 53% | 4900 nM |  | 
O=C1NCc2cc(C#Cc3ccc(F)cc3)ccc21 | 60% | 350 nM |  | 
O=C1NCCc2cc(C#Cc3ccc(F)cc3)ccc21 | 81% | 260 nM |  | 
O=C1c2ccc(C#Cc3ccccc3)cc2C(=O)N1CCc1ccncc1 | 76% | 900 nM |  | 
CN1CCc2cc(C#Cc3ccccc3)ccc2C1=O | 53% | 250 nM |  | 
O=C1NC(=O)c2cc(C#Cc3ccc(F)c(F)c3)ccc21 | 84% | 170 nM |  | 
O=C1NCCc2cc(C#Cc3cccc(Cl)c3)ccc21 | 68% | 470 nM |  | 
O=C1c2ccc(C#Cc3ccccc3)cc2CCN1CC1CC1 | 69% | 180 nM | Active | 
O=C1c2ccc(C#Cc3ccccc3)cc2C(=O)N1CCc1ccccn1 | 40% | 870 nM |  | 
O=C1NC(=O)c2cc(C#Cc3ccc(F)cc3)ccc21 | 88% | 160 nM |  | 
Cc1ccccc1C#Cc1ccc2c(c1)CCNC2=O | 53% | 610 nM |  | 
O=C(c1ccc(C#Cc2ccccc2)cc1)N1CCC(O)CC1 | 72% | 10 nM |  | 
COc1ccc(C#Cc2ccc3c(c2)CCNC3=O)cc1 |  | > 10000 nM |  | 
O=C1c2ccc(C#Cc3ccccc3)cc2CCN1Cc1ccccc1 | 90% | 550 nM |  | 
O=C(NC1CCC1)c1ccc(C#Cc2cccc(F)c2)nc1 | 87% | 16 nM |  | 
O=C1NCc2cc(C#Cc3cccc(F)c3)ccc21 | 71% | 66 nM |  | 
CN1CCc2nc(C#Cc3cccc(F)c3)ccc2C1=O |  |  |  | 170 nM
CCCCN1CCc2nc(C#Cc3cccc(F)c3)ccc2C1=O | 46% | 56 nM |  | 

Compound | Activity [1] | EC50 [2] | Activity (Rattus norvegicus) | IC50 [3]
CCCN1CCc2cc(C#Cc3ccccc3)ccc2C1=O | 97% | 160 nM | Active | 
O=C1NCCc2cc(C#Cc3ccc(Cl)cc3)ccc21 |  | > 10000 nM |  | 
O=C1NCCc2cc(C#Cc3ccccc3F)ccc21 | 80% | 150 nM |  | 
O=C1NCCc2cc(C#Cc3ccc(F)cc3F)ccc21 | 59% | 850 nM |  | 
COc1cccc(C#Cc2ccc3c(c2)CCNC3=O)c1 | 58% | 3400 nM |  | 
CCCCN1CCc2cc(C#Cc3ccccc3)ccc2C1=O | 97% | 96 nM |  | 
O=C1NC(=O)c2cc(C#Cc3ccccc3F)ccc21 | 93% | 12 nM |  | 
O=C1c2ccc(C#Cc3ccccc3)cc2CCN1CCN1CCOCC1 | 84% | 3600 nM |  | 
O=C1NCCc2cc(C#Cc3ccccc3)ccc21 |  |  | Active | 
O=C1NC(=O)c2cc(C#Cc3cccc(F)c3)ccc21 | 99% | 35 nM |  | 
O=C1NCc2cc(C#Cc3ccccc3F)ccc21 | 67% | 200 nM |  | 
O=C1c2ccc(C#Cc3ccccc3)cc2C(=O)N1CCN1CCOCC1 | 44% | 5700 nM |  | 
Cc1cccc(C#Cc2ccc3c(c2)CCNC3=O)c1 | 76% | 170 nM |  | 
O=C1NCCc2cc(C#Cc3ccccc3Cl)ccc21 | 50% | 3700 nM |  | 
O=C1c2ccc(C#Cc3cccc(F)c3)nc2CCN1CC1CCC1 | 53% | 130 nM |  | 
O=C1c2ccc(C#Cc3ccccc3)cc2CCN1CCN1CCC1 | 77% | 4000 nM |  | 
O=C1NCc2cc(C#Cc3ccccc3)ccc21 | 69% |  |  | 
O=C1c2ccc(C#Cc3cccc(F)c3)nc2CCN1CC1CC1 |  |  |  | 660 nM
O=C1NCCc2nc(C#Cc3cccc(F)c3)ccc21 | 72% | 290 nM |  | 
